Laboratory results published in US10874675B2, “Pteridine dione monocarboxylate transporter inhibitors” (The Scripps Research Institute, priority 2015, dated 2020).

Tested on: Raji (Burkitt's) lymphoma cells
Assay: MTT assay for 4-day viability of Raji (Burkitt's) lymphoma cells
Assay type: cell-based
Conditions: Homo sapiens, 96 h, Raji cells (highly express MCT1), estimated values, read-out: approximate potency (EC50 nM)
Source text: Specific Examples of compounds of the invention, with estimated EC50 values determined using an MTT assay for 4-day viability of Raji (Burkitt's) lymphoma cells, a cell line known to highly express MCT1 and to be sensitive to small molecule MCT inhibitors,^4 are shown in Table 3. Assay protocols follow those described in the literature.^4 Other assays that are not described here but that are standard in the field, such as an assay for competitive inhibition of transport of radiolabeled lactic acid, an MCT substrate, may also be useful in establishing mechanism of action of these compounds.

Compound	EC50
CC(C)Cn1c(=O)n(C)c(=O)c2nc(CCCCCO)c(COc3ccccc3C(F)(F)F)nc21 [Example 7, 6-(5-hydroxypentyl)-1-isobutyl-3-methyl-7-((2-(trifluoromethyl)phenoxy)methyl)pteridine-2,4(1H,3H)-dione]	< 50 nM
CC(C)Cn1c(=O)n(C)c(=O)c2nc(CCCCCO)c(COc3ccccc3Cl)nc21 [Example 13, 7-((2-chlorophenoxy)methyl)-6-(5-hydroxypentyl)-1-isobutyl-3-methylpteridine-2,4(1H,3H)-dione]	< 50 nM
CC(C)Cn1c(=O)n(C)c(=O)c2nc(CCCCCO)c(COc3cccc(C(F)(F)F)c3)nc21 [Example 16, 6-(5-hydroxypentyl)-1-isobutyl-3-methyl-7-((3-(trifluoromethyl)phenoxy)methyl)pteridine-2,4(1H,3H)-dione]	≤ 100 nM
CC(C)Cn1c(=O)n(C)c(=O)c2nc(CCCCCO)c(COc3ccc4ncccc4c3)nc21 [Example 18, 6-(5-hydroxypentyl)-1-isobutyl-3-methyl-7-((quinolin-6-yloxy)methyl)pteridine-2,4(1H,3H)-dione]	≤ 100 nM
CC(C)Cn1c(=O)n(C)c(=O)c2nc(CCCCCO)c(COc3ccc(Cl)cc3Br)nc21 [Example 21, 7-((2-bromo-4-chlorophenoxy)methyl)-6-(5-hydroxypentyl)-1-isobutyl-3-methylpteridine-2,4(1H,3H)-dione]	≤ 250 nM
CC(C)Cn1c(=O)n(C)c(=O)c2nc(CCCCCO)c(COc3ccncc3)nc21 [Example 28, 6-(5-hydroxypentyl)-1-isobutyl-3-methyl-7-((pyridin-4-yloxy)methyl)pteridine-2,4(1H,3H)-dione]	≤ 1000 nM
CC(C)Cn1c(=O)n(C)c(=O)c2nc(CCCCCO)c(COc3ccc4ccccc4c3)nc21 [Example 10]	< 50 nM
CC(C)Cn1c(=O)n(C)c(=O)c2nc(CCCCCO)c(COc3cc4ccccc4cn3)nc21 [Example 27, 6-(5-hydroxypentyl)-1-isobutyl-7-((isoquinolin-3-yloxy)methyl)-3-methylpteridine-2,4(1H,3H)-dione]	≤ 500 nM
CC(C)Cn1c(=O)n(C)c(=O)c2nc(CCCCCO)c(COc3cccc(N)c3)nc21 [Example 33, 7-((3-aminophenoxy)methyl)-6-(5-hydroxypentyl)-1-isobutyl-3-methylpteridine-2,4(1H,3H)-dione]	≤ 100 nM
CC(C)Cn1c(=O)n(C)c(=O)c2nc(CCCCCO)c(COc3ccc(Br)cc3Br)nc21 [Example 19, 7-((2,4-dibromophenoxy)methyl)-6-(5-hydroxypentyl)-1-isobutyl-3-methylpteridine-2,4(1H,3H)-dione]	≤ 250 nM
CC(C)Cn1c(=O)n(C)c(=O)c2nc(CCc3ccccc3CO)c(COc3cccc4ccccc34)nc21 [Example 35, 6-(2-(hydroxymethyl)phenethyl)-1-isobutyl-3-methyl-7-((naphthalen-1-yloxy)methyl)pteridine-2,4(1H,3H)-dione]	≤ 100 nM
CC(C)Cn1c(=O)n(C)c(=O)c2nc(CCCCCO)c(COc3cccnc3)nc21 [Example 31, 6-(5-hydroxypentyl)-1-isobutyl-3-methyl-7-((pyridin-3-yloxy)methyl)pteridine-2,4(1H,3H)-dione]	≤ 1000 nM
CC(C)Cn1c(=O)n(C)c(=O)c2nc(CCCCCO)c(COc3ccc(N)c4ccccc34)nc21 [Example 9, 7-(((4-aminonaphthalen-1-yl)oxy)methyl)-6-(5-hydroxypentyl)-1-isobutyl-3-methylpteridine-2,4(1H,3H)-dione]	< 50 nM
CC(C)Cn1c(=O)n(C)c(=O)c2nc(CCCCCO)c(COc3cccc4nccnc34)nc21 [Example 30, 6-(5-hydroxypentyl)-1-isobutyl-3-methyl-7-((quinoxalin-5-yloxy)methyl)pteridine-2,4(1H,3H)-dione]	≤ 1000 nM
CC(C)Cn1c(=O)n(C)c(=O)c2nc(CCCCCO)c(COc3cncc4ccccc34)nc21 [Example 5]	< 50 nM
CC(C)Cn1c(=O)n(C)c(=O)c2nc(CCCCCO)c(COc3ccccc3-c3ccccc3)nc21 [Example 23, 7-(([1,1′-biphenyl]-2-yloxy)methyl)-6-(5-hydroxypentyl)-1-isobutyl-3-methylpteridine-2,4(1H,3H)-dione]	≤ 250 nM

Compound	EC50
CC(C)Cn1c(=O)n(C)c(=O)c2nc(CCCCCO)c(COc3ccnc4ccccc34)nc21 [Example 12, 6-(5-hydroxypentyl)-1-isobutyl-3-methyl-7-((quinolin-4-yloxy)methyl)pteridine-2,4(1H,3H)-dione]	< 50 nM
CC(C)Cn1c(=O)n(C)c(=O)c2nc(CCCCCO)c(COc3cccc4ccccc34)nc21 [Example 2, 6-(5-hydroxypentyl)-1-isobutyl-3-methyl-7-((naphthalen-1-yloxy)methyl)pteridine-2,4(1H,3H)-dione]	< 50 nM
CC(C)Cn1c(=O)n(C)c(=O)c2nc(CCCCCO)c(COc3ccc4cccnc4c3)nc21 [Example 20, 6-(5-hydroxypentyl)-1-isobutyl-3-methyl-7-((quinolin-7-yloxy)methyl)pteridine-2,4(1H,3H)-dione]	≤ 250 nM
CC(C)Cn1c(=O)n(C)c(=O)c2nc(CCCCCO)c(COc3cccc([N+](=O)[O-])c3)nc21 [Example 32, 6-(5-hydroxypentyl)-1-isobutyl-3-methyl-7-((3-nitrophenoxy)methyl)pteridine-2,4(1H,3H)-dione]	≤ 1000 nM
CC(C)Cn1c(=O)n(C)c(=O)c2nc(CCCCCO)c(COc3ccc([N+](=O)[O-])c4ccccc34)nc21 [Example 8, 6-(5-hydroxypentyl)-1-isobutyl-3-methyl-7-(((4-nitronaphthalen-1-yl)oxy)methyl)pteridine-2,4(1H,3H)-dione]	300 nM
CC(C)Cn1c(=O)n(C)c(=O)c2nc(CCCCCO)c(COc3cccc4[nH]ccc34)nc21 [Example 6, 7-(((1H-indol-4-yl)oxy)methyl)-6-(5-hydroxypentyl)-1-isobutyl-3-methylpteridine-2,4(1H,3H)-dione]	< 50 nM
CC(C)Cn1c(=O)n(C)c(=O)c2nc(CCCCCO)c(COc3ccccc3)nc21 [Example 15, 6-(5-hydroxypentyl)-1-isobutyl-3-methyl-7-(phenoxymethyl)pteridine-2,4(1H,3H)-dione]	≤ 100 nM
CC(C)Cn1c(=O)n(C)c(=O)c2nc(CCCCCO)c(COc3ccccc3Br)nc21 [Example 11, 7-((2-bromophenoxy)methyl)-6-(5-hydroxypentyl)-1-isobutyl-3-methylpteridine-2,4(1H,3H)-dione]	< 50 nM
CC(C)Cn1c(=O)n(C)c(=O)c2nc(CCCCCO)c(COc3cccc4ccncc34)nc21 [Example 25, 6-(5-hydroxypentyl)-1-isobutyl-7-((isoquinolin-8-yloxy)methyl)-3-methylpteridine-2,4(1H,3H)-dione]	≤ 250 nM
CC(C)Cn1c(=O)n(C)c(=O)c2nc(CCCCCO)c(COc3ccc(-c4ccccc4)cc3)nc21 [Example 14, 7-(([1,1′-biphenyl]-4-yloxy)methyl)-6-(5-hydroxypentyl)-1-isobutyl-3-methylpteridine-2,4(1H,3H)-dione]	≤ 100 nM
CC(C)Cn1c(=O)n(C)c(=O)c2nc(CCCCCO)c(COc3c(Br)cc(Br)c4cnccc34)nc21 [Example 29, 7-(((6,8-dibromoisoquinolin-5-yl)oxy)methyl)-6-(5-hydroxypentyl)-1-isobutyl-3-methylpteridine-2,4(1H,3H)-dione]	≤ 1000 nM
CC(C)Cn1c(=O)n(C)c(=O)c2nc(CCCCCO)c(COc3cccc4cccnc34)nc21 [Example 26, 6-(5-hydroxypentyl)-1-isobutyl-3-methyl-7-((quinolin-8-yloxy)methyl)pteridine-2,4(1H,3H)-dione]	≤ 500 nM
CC(C)Cn1c(=O)n(C)c(=O)c2nc(CCCCCO)c(COc3cc(F)ccc3Br)nc21 [Example 24, 7-((2-bromo-5-fluorophenoxy)methyl)-6-(5-hydroxypentyl)-1-isobutyl-3-methylpteridine-2,4(1H,3H)-dione]	≤ 250 nM
CC(C)Cn1c(=O)n(C)c(=O)c2nc(CCCCCO)c(COc3ccc(C(F)(F)F)cc3)nc21 [Example 22, 6-(5-hydroxypentyl)-1-isobutyl-3-methyl-7-((4-(trifluoromethyl)phenoxy)methyl)pteridine-2,4(1H,3H)-dione]	≤ 250 nM
CC(C)Cn1c(=O)n(C)c(=O)c2nc(CCCCCO)c(COc3ccccc3F)nc21 [Example 17, 7-((2-fluorophenoxy)methyl)-6-(5-hydroxypentyl)-1-isobutyl-3-methylpteridine-2,4(1H,3H)-dione]	≤ 100 nM
CC(C)Cn1c(=O)n(C)c(=O)c2nc(CCCCCO)c(COc3ccccc3C#N)nc21 [Example 34, 2-((6-(5-hydroxypentyl)-1-isobutyl-3-methyl-2,4-dioxo-1,2,3,4-tetrahydropteridin-7-yl)methoxy)benzonitrile]	≥ 2000 nM
